Measured values from US20250025466A1, “New oral pharmaceutical composition and dose regimen for the therapy of progressive fibrosing interstitial lung diseases” (Boehringer Ingelheim International GmbH, priority 2021, published 2025).
Marks after values point to notes of the source that are not given here.

Assays:
tuberculosis model = conditions: rabbit, in vivo; cited from earlier work
IPF patients [1] = assay: Phase II clinical trial in IPF patients: disposition / premature discontinuation; type: in vivo, human; conditions: 18 mg b.i.d.
Method: The participants were divided into 2 groups by chance (the “active agent group” and the “placebo group”). […] One 12 mg placebo tablet and one 6 mg placebo tablet (both containing no active ingredient, see Table 1) was administered orally to the patients of the second group twice daily (b.i.d.).
The “active agent group” and the “placebo group” were further distributed to two different groups regarding background medication: the “AF-group” (“antifibrotic background medication group”) and the “Non-AF-group” (“no antifibrotic background medication group”). […] The combination of both nintedanib and pirfenidone as background medication was not allowed in the “AF-group”.
The trial was a randomised, double-blind, placebo-controlled parallel group study.

IPF patients [2] = conditions: male, human, in vivo, 13 weeks
PDE4 B subtype = PDE4 B subtype (Homo sapiens, UniProt Q07343); conditions: disclosed in WO 2013/026797; cited from earlier work
Sequence of PDE4 B subtype (Q07343 whole entry): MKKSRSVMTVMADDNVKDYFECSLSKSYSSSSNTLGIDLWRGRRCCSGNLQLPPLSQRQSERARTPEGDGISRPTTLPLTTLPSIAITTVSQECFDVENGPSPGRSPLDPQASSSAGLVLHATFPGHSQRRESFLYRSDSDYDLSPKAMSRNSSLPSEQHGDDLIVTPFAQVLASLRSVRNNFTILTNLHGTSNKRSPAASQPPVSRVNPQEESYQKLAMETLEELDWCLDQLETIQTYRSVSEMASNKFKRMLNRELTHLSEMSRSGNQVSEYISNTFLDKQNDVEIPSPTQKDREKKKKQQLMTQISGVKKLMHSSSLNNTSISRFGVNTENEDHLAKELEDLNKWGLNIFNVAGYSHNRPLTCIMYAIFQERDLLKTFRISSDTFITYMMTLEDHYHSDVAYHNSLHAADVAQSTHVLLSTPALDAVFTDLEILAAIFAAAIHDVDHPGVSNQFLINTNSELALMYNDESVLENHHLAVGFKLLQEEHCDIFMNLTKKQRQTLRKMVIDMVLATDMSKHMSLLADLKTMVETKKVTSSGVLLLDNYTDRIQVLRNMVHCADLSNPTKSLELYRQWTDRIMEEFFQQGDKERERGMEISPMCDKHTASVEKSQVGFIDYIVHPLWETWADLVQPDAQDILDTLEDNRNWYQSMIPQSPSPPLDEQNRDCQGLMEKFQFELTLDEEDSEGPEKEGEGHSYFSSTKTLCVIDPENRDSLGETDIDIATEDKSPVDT

human lung fibroblasts = conditions: combination with nintedanib; WO2019/081235; cited from earlier work
IPF patients [3] = assay: Phase II clinical trial in IPF patients: Treatment Emergent Adverse Events
skin fibrosis = conditions: induced by bleomycin or topoisomerase I and chronic graft-versus-host disease; cited from earlier work
[4] = test system: dextran sulfate sodium-induced colitis ulcerosa; conditions: mouse, in vivo; cited from earlier work
bleomycin mice [5] = conditions: mouse, in vivo; cited from earlier work
[6] = test system: human fetal lung fibroblasts (HFL-1); conditions: cited from earlier work
patients with IPF [7] = conditions: IPF with mild or moderate impairment of FVC (≥50% predicted); cited from earlier work
patients with IPF [8] = conditions: in vivo; cited from earlier work
[9] = test system: normal human lung fibroblasts (NHLFs); conditions: in the presence of PGE2; cited from earlier work
[10] = test system: normal human lung fibroblasts (NHLFs); conditions: cited from earlier work
[11] = test system: human fetal lung fibroblast strain (GM06114); conditions: in the presence of PGE2; cited from earlier work
[12] = test system: normal human lung fibroblasts (NHLFs); conditions: stimulated by bleomycin or 8-epi-PGF2α; cited from earlier work
[13] = test system: bleomycin-induced fibrosis; conditions: cited from earlier work
bleomycin mice [14] = conditions: mouse, in vivo; cited from earlier work; remark: listed apart in the source
[15] = test system: type II alveolar epithelial cells; conditions: cited from earlier work
[16] = test system: chronic graft-versus-host disease; conditions: cited from earlier work
[17] = test system: diethylnitrosamine-induced liver fibrosis; conditions: rat, in vivo; cited from earlier work
[18] = test system: normal human lung fibroblasts (NHLFs); conditions: in the presence of indacaterol; cited from earlier work
[19] = test system: human lung fibroblast model (WI-38); conditions: in the presence of forskolin; cited from earlier work
[20] = test system: bleomycin-induced fibrosis; conditions: administered from the beginning of bleomycin challenge; cited from earlier work
[21] = test system: renal interstitial fibrosis; conditions: mouse, in vivo; cited from earlier work
[22] = test system: mouse primary tubular epithelial cells; conditions: cited from earlier work
[23] = test system: bile duct ligation-induced hepatic fibrosis; conditions: rat, in vivo; cited from earlier work
hepatic stellate cells = conditions: cited from earlier work
[24] = test system: trinitrobenzene sulfonic acid-induced colitis; conditions: rat, in vivo; cited from earlier work
cecal abrasion model = conditions: mouse, in vivo; cited from earlier work
sponge implant model = conditions: subcutaneous or intraperitoneal implant; cited from earlier work
[25] = test system: A549 human alveolar epithelial cell line; conditions: TGF-β1-stimulated; cited from earlier work
[26] = AF-group nintedanib background, 18 mg b.i.d.
[27] = AF-group pirfenidone background, 18 mg b.i.d.
[28] = Total (Non-AF + AF), 18 mg b.i.d.

SMILES: CCOc1cc([C@@H](CS(C)(=O)=O)N2Cc3cccc(NC(=O)C4CC4)c3C2=O)ccc1OC [CC-11050]
- Pulmonary damage and fibrosis (tuberculosis model): inhibited

SMILES: [O-][S@+]1CCc2nc(N3CCC(c4ncc(Cl)cn4)CC3)nc(NC3(CO)CCC3)c21 [Comp. of Form. III]
- Not completed observation period: Death, % (IPF patients [1]; AF-group): 2.0%
- Not completed planned treatment period (prematurely discontinued trial medication), % (IPF patients [1]; AF-group): 20.4%
- Not completed treatment period: Adverse Event, % (IPF patients [1]; AF-group): 20.4%
- Not completed observation period: Death, % (IPF patients [1]; Non-AF-group): 2.1%
- Not completed planned treatment period (prematurely discontinued trial medication), % (IPF patients [1]; Non-AF-group): 10.4%
- Not completed treatment period: Adverse Event, % (IPF patients [1]; Non-AF-group): 6.3%
- Moderate cases of diarrhoea (IPF patients [2]): 2.1%
- Severe case of diarrhoea (IPF patients [2]): 1.0%
- PDE4 subtype preference (PDE4 B subtype): inhibit preferentially the PDE4 B subtype
- Effect on fibroblast proliferation (human lung fibroblasts): synergistic overadditive effect
- AE: Infections and infestations (IPF patients [3]; [26]): 6 (23.1) n (%)
- Serious AEs: Results in Death, % (IPF patients [3]; [26]): 0%
- AE: Infections and infestations (IPF patients [3]; [27]): 1 (4.3) n (%)
- Serious AEs: Results in Death, % (IPF patients [3]; [27]): 4.3%
- AE: Infections and infestations (IPF patients [3]; AF-group, 18 mg b.i.d.): 7 (14.3) n (%)
- Patients with AE resulting in death (IPF patients [3]; AF-group, 18 mg b.i.d.): 1 (2.0) n (%)
- SAE: General disorders and administration side conditions, fatal events (IPF patients [3]; AF-group, 18 mg b.i.d., bracketed value marked * (fatal events)): [1 (2.1)]* n (%)
- SAE: Vasculitis (IPF patients [3]; AF-group, 18 mg b.i.d., fatal event): 1 (2.0)* n (%)
- AE: Infections and infestations (IPF patients [3]; Non-AF-group, 18 mg b.i.d.): 7 (14.6) n (%)
- Patients with AE resulting in death (IPF patients [3]; Non-AF-group, 18 mg b.i.d.): 1 (2.1) n (%)
- SAE: Infections and Infestations (IPF patients [3]; Non-AF-group, 18 mg b.i.d.): 1 (2.1) n (%)
- SAE: Covid-19 pneumonia (IPF patients [3]; Non-AF-group, 18 mg b.i.d., fatal event): 1 (2.1)* n (%)
- AE: Infections and infestations (IPF patients [3]; [28]): 14 (14.4) n (%)
- Patients with AE resulting in death (IPF patients [3]; [28]): 2 (2.1) n (%)
- SAE: Covid-19 pneumonia (IPF patients [3]; [28]): 1 (1.0) n (%)
- SAE: Infections and Infestations (IPF patients [3]; [28]): 1 (1.0) n (%)
- Patients who experienced an AE resulting in death (IPF patients [3]; active agent group, all, one Covid-19 pneumonitis, one unconfirmed vasculitis): 2 patients

SMILES: CCOc1cc([C@@H](CS(C)(=O)=O)N2C(=O)c3cccc(NC(C)=O)c3C2=O)ccc1OC [apremilast]
- Skin fibrosis (skin fibrosis): inhibited
- Fibrosis in colon, collagen deposition, fibrosis-related gene expression [4]: inhibited fibrosis in colon, collagen deposition, and the expression of genes related to fibrosis

SMILES: COc1ccc([C@]2(C#N)CC[C@@H](C(=O)O)CC2)cc1OC1CCCC1 [cilomilast]
- Late-stage lung fibrosis and collagen content (bleomycin mice [5]): inhibit late-stage lung fibrosis and tended to reduce collagen content
- TGF-β1 and collagen type (Col) 1A1 expression (bleomycin mice [5]): no effect
- FN-induced chemotaxis and contraction of collagen gels [6]: inhibited FN-induced chemotaxis and contraction of collagen gels

SMILES: COC(=O)c1ccc2c(c1)NC(=O)/C2=C(\Nc1ccc(N(C)C(=O)CN2CCN(C)CC2)cc1)c1ccccc1 [nintedanib]
- Effect on FVC decline (patients with IPF [7]): can only reduce the decline in FVC
- Most prominent side effects (patients with IPF [8]): gastrointestinal events, particularly diarrhea, nausea, vomiting, abdominal pain, decreased appetite and a decreased body weight

SMILES: COc1ccc(C(=O)Nc2c(Cl)cncc2Cl)cc1OC1CCCC1 [piclamilast]
- TGF-β-induced fibroblast-to-myofibroblast conversion (α-SMA expression) [9]: inhibited
- IL-1β plus bFGF-stimulated fibroblast proliferation [10]: inhibition of IL-1β plus bFGF-stimulated fibroblast proliferation

SMILES: Cc1ccc(=O)n(-c2ccccc2)c1 [pirfenidone]
- Effect on FVC decline (patients with IPF [7]): can only reduce the decline in FVC
- Most prominent side effects (patients with IPF [8]): gastrointestinal events, particularly diarrhea, nausea, vomiting, abdominal pain, decreased appetite and a decreased body weight

SMILES: O=C(Nc1c(Cl)c[n+]([O-])cc1Cl)c1ccc(OC(F)F)c(OCC2CC2)c1 [roflumilast N-oxide]
- ICAM-1 and eotaxin release, proliferation, α-SMA, CTGF, FN mRNA [11]: inhibit intercellular adhesion molecule-1 and cotaxin release stimulated by TNF-α
- NHLF responses (collagen synthesis, proliferation, ROS and F2-isoprostane formation, NADPH oxidase 4 expression) [12]: inhibited

SMILES: O=C(Nc1c(Cl)cncc1Cl)c1ccc(OC(F)F)c(OCC2CC2)c1 [roflumilast]
- Right ventricular hypertrophy and vascular remodeling (pulmonary arteries) ([13]; in vivo): positively influenced
- Fibrosis, hydroxyproline content and mRNA expression in lung extracts ([13]; lung extracts): inhibited histologically assessed fibrosis, hydroxyproline content
- Activity in preventive and therapeutic protocols ([13]; oral): active both in preventive and in therapeutic protocols in a dose-dependent manner
- Levels of the amino acids glycine and proline (bleomycin mice [14]): lowered
- Lung glutathione and plasma tetrahydrobiopterin (bleomycin mice [14]): increased
- Lung hydroxyproline content and mRNA expression of TNF-α, FN, CTGF ([15]; mouse, in vivo): lowered lung hydroxyproline content and mRNA expression of TNF-α, fibronectin (FN), and CTGF
- Potency relative to pirfenidone and nintedanib ([15]; therapeutic regimen): therapeutically equipotent to pirfenidone and nintedanib
- Fibrosis, collagen deposition, hydroxyproline, TGF-β1, cell infiltration, IL-6 and IL-1β mRNA ([16]; mouse, in vivo): inhibited fibrosis, collagen deposition, hydroxyproline and TGF-β1 content, cell infiltration, and expression of mRNA for IL-6 and IL-1β
- Lung fibrosis ([16]; oral): attenuated
- Liver fibrosis, hydroxyproline deposition, TGF-β1 expression [17]: inhibited diethylnitrosamine-induced liver fibrosis, hydroxyproline deposition, and TGF-β1 expression
- TGF-β1-induced CTGF mRNA, α-SMA protein expression and FN [18]: inhibition
- TGF-β-induced mRNA expression of collagen α1, CTGF, and FN [19]: inhibited

SMILES: COc1ccc(C2CNC(=O)C2)cc1OC1CCCC1 (stereo not shown) [rolipram]
- Fibrotic score, hydroxyproline content, serum TNF-α [20]: inhibit fibrotic score, hydroxyproline content, and serum tumor necrosis factor-α (TNF-α)
- Skin fibrosis (skin fibrosis): inhibited
- Renal interstitial fibrosis [21]: inhibit renal interstitial fibrosis
- TGF-β-induced damage, FN expression, deficiency of mitochondrial biogenesis [22]: inhibited TGF-β-induced damage, FN expression, and deficiency of mitochondrial biogenesis
- Collagen deposition, α-SMA staining and mRNA expression [23]: inhibited collagen deposition, α-smooth muscle actin (α-SMA) staining, and mRNA expression
- mRNA expression of α-SMA and Col1A2 (hepatic stellate cells): inhibited mRNA expression of α-SMA and Col1A2
- Collagen and TGF-β1 in colonic tissue [24]: inhibited collagen and TGF-β1
- Fibrotic reactions (cecal abrasion model): inhibited fibrotic reactions
- Intra-implant collagen and TGF-β1 deposition (sponge implant model): inhibiting intra-implant collagen and TGF-β1 deposition
- FN-induced chemotaxis and contraction of collagen gels [6]: inhibited FN-induced chemotaxis and contraction of collagen gels
- Epithelial-mesenchymal transition changes [25]: inhibited epithelial-mesenchymal transition changes like FN and collagen mRNA expression, although not α-SMA mRNA
